Starred links: 1 amine or outer side, 2 acyl side, 3 side chain; linkers in the order of their positions; H or OH if unused. Positions of bridges follow the written chain, without caps; N, C: chain ends. Non-standard residues stand in square brackets, D forms with d. Residues, ends and D or L forms follow the SMILES beside them. Adda = CO[C@@H](Cc1ccccc1)[C@@H](C)/C=C(C)/C=C/[C@H](N[*:1])[C@H](C)C(=O)[*:2]; dAsp(3S-Me) = C[C@H](C(=O)[*:3])[C@@H](N[*:1])C(=O)[*:2]; d(γGlu) = O=C(O)[C@@H](CCC(=O)[*:2])N[*:1]; NMeDha = C=C(NC)C(=O)O
Tests used:
[1] = Effective dose that causes 50 % inhibition of protein phosphatase 2A (PP2A), isolated from mouse skin
[2] = Compound was evaluated for the ability to inhibit dephosphorylation of [32P]phosphorylase by Protein phosphatase 1
[3] = Compound was evaluated for the ability to inhibit dephosphorylation of [32P]phosphorylase by protein phosphatase 2A (PP2A)
[4] = Compound was evaluated for the ability to inhibit specific [3H]-okadaic acid binding to Protein phosphatase 1
[5] = Compound was evaluated for the ability to inhibit specific [3H]-okadaic acid binding to protein phosphatase 2A (PP2A)

Structure (SMILES)	ED50 [1]	ED50 [2]	ED50 [3]	ED50 [4]	ED50 [5]
CC=C1C(=O)N[C@@H](C(=O)O)[C@H](C)C(=O)N[C@@H](CCCNC(=N)N)C(=O)N[C@@H](/C=C/C(C)=C/[C@H](C)[C@H](Cc2ccccc2)OC)[C@H](C)C(=O)N[C@@H](C(=O)O)CCC(=O)N1C	0.9 nM	–	–	–	–
C=C1C(=O)N[C@H](C)C(=O)N[C@@H](CC(C)C)C(=O)N[C@@H](C(=O)O)[C@H](C)C(=O)N[C@@H](C)C(=O)N[C@@H](/C=C/C(C)=C/[C@H](C)[C@H](Cc2ccccc2)OC)[C@H](C)C(=O)N[C@@H](C(=O)O)CCC(=O)N1C (A[Adda][d(γGlu)][NMeDha][dA]L[dAsp(3S-Me)]-OH; lactam N-7)	–	0.9 nM	0.38 nM	10.6 nM	10 nM
C=C1C(=O)N[C@H](C)C(=O)N[C@@H](CC(C)C)C(=O)N[C@@H](C(=O)O)[C@H](C)C(=O)N[C@@H](CCCNC(=N)N)C(=O)N[C@@H](/C=C/C(C)=C/[C@H](C)[C@H](Cc2ccccc2)OC)[C@H](C)C(=O)N[C@@H](C(=O)O)CCC(=O)N1C (R[Adda][d(γGlu)][NMeDha][dA]L[dAsp(3S-Me)]-OH; lactam N-7)	0.8 nM	0.44 nM	0.32 nM	7.8 nM	5.2 nM
